From patent US6326369A, “Bicyclic quinone compounds, their production and use” (Takeda Chemicals Industries, Ltd., priority 1997, dated 2001)
Like-named read-outs stand apart in the source and are kept apart here.

Test system: Brain Homogenate
Experiment: Peroxylipid formation inhibiting effect in brain homogenate (thiobarbituric acid (TBA) method)
Assay type: biochemical, Wistar rats (male, 12-week old)
Conditions: 37° C., 30 minutes, pH 7.4
Description: JC1:Wistar rats (male, 12-week old) were used as test animals. The rats were sacrificed by decapitation, and the brain was quickly removed and homogenized with 10 ml of 10 mM Tris-HCl buffer (pH 7.4) containing 150 mM KCl. The resulting homogenate was centrifuged at 2,200 rpm, at 4° C., for 10 minutes, and the supernatant was used in the test. 250 μl of the supernatant was put into a 96-well plate, to which was added a test compound and incubated at 37° C. for 30 minutes.
The concentration of glutamic acid and succinic acid, if added prior to the incubation, was 5.0 mM and 2.5 mM, respectively.
To determine the amount of the peroxylipid formed, used was a thiobarblturic acid (TBA) method. Briefly, 50 μl of 35% perchloric acid was added to the incubated mixture, which was then centrifuged at 2,000 rpm, at 4° C., for 10 minutes. The resulting supernatant was transferred into a different 96-well plate in an amount of 200 μl/well. 100 μl/well of TBA (5 mg/ml TBA in 50% acetic acid) was added thereto, and reacted at 80° C. for 1 hour. Then, the reaction mixture was cooled to room temperature, and its absorbance at 532 nm was measured.
On the other hand, a calibration curve was prepared using tetraethoxypropane which is a […] for TBA. In the same manner, the peroxylipid concentration in a sample that had been incubated for 30 minutes in the absence of the test compound, and also the peroxylipid concentration in a sample to which had been added 35% perchloric acid prior to the incubation (in the absence of the test compound) were also obtained. The inhibition percentage was calculating according to the following equation. The 50% inhibitory concentration (IC50) was obtained, using a log-probit method.
Inhibition Percentage (%)=[(C-A)/(C-B)]×100
A: Peroxylipid concentration in the sample to which was added the test compound;
B: Peroxylipid concentration in the sample to which was added 35% perchloric acid prior to the incubation;
C: Peroxylipid concentration in the sample to which was not added the test compound.

[1] = brain homogenate only, read-out: Peroxylipid Formation Inhibiting Effect (IC50) Brain Homogenate Only
[2] = glutamic acid 5.0 mM and succinic acid 2.5 mM added prior to incubation, read-out: Peroxylipid Formation Inhibiting Effect (IC50) Glutamic Acid and Succinic Acid Added

IC50 [1]	IC50 [2]	Compound
2.3 µM	0.94 µM	CCOC(=O)CCCCCCCC1CC2=C(C1)C(=O)C(OC)=C(OC)C2=O [Ex. 9, Ethyl 8-(5,6-dimethoxy-4,7-dioxoindan-2-yl)octanoate]
1.1 µM	0.17 µM	COC1=C(OC)C(=O)C2=C(CC(CCCCCCCCO)C2)C1=O [Ex. 10, 2-(8-Hydroxyoctyl)-5,6-dimethoxyindan-4,7-dione]
